Test results: patent publication US20030083228A1, “Treatments for female sexual dysfunction and methods for identifying compounds useful for treating female sexual dysfunction” (priority 2001, published 2003)

Experiments:
melanocortin receptors = assay: [125I]NDP-MSH competition binding assay
Excerpt: (§1) The first radioligand binding assay is an [^125I]AGRP competition binding assay. Compounds that attenuate binding of [^125I]AGRP or AGRP would be detected in this assay. It is noted that compounds can attenuate the binding of AGRP to melanocortin 3 and/or 4 receptors by binding to melanocortin 3 and/or 4 receptors or by binding to AGRP itself. The second radioligand binding assay is an assay using radiolabeled melanocortin ligands, for example, [^125I]norleucine D-phenylalanine melanocyte stimulating hormone ([^125I]NDP-MSH). Membranes prepared from cells expressing either melanocortin 3 or 4 receptors are used in the radioligand binding assays. The preparation and use of [^125I]AGRP and [^125I]NDP-MSH is well known in the art. See, for example, Dang et al., Molecular Endocrinology, 13, 148-155 (1999). In addition, the preparation and use of membranes from cells expressing either melanocortin 3 or 4 receptors are also well known in the art. See, Bass, et al., Molecular Pharmacology, 50, 709-715 (1996).
Specific Activity of [^125I]NDP-MSH is 2200 Ci/mmole. The final concentration of [^125I]NDP-MSH is 250 pM. Therefore, a 5 nM (20×) stock needs to be made in binding buffer. The concentration of [^125I]NDP-MSH varies from 40-60 nM. [^125I]NDP-MSH can be obtained from New England Nuclear, Boston, Mass.
(§2) The competition assay can be run using 96 well plates. […]

melanocortin-4 receptors = melanocortin-4 receptors (Homo sapiens, UniProt P32245); assay: [125I]AGRP competition binding assay; conditions: particularly melanocortin-4 receptors
Excerpt: as §1
Specific Activity of [^125I]AGRP is 2200 Ci/mmole. The final concentration of [^125I]AGRP is 100 pM. Therefore, a 2 nM (20×) stock needs to be made in binding buffer. The concentration of [^125I]AGRP varies from 40-60 nM. [^125I]AGRP can be obtained from New England Nuclear, Boston, Mass.
as §2

MDA-MB-231 cells = assay: Inhibition of in vitro human breast tumor cell growth, ER-negative cell line; type: cell-based; conditions: MDA-MB-231 (ER-negative), 6 days incubation, direct cell counts
Method: The in vitro antiproliferative effects of (−)-cis-6-phenyl-5-[4-(2-pyrrolidin-1-yl-ethoxy)-phenyl]-5,6,7,8-tetrahydro-naphthalene-2-ol (PPTN) were tested using two types of human breast cancer cell lines: first, MCF-7 cells, which contain ER as well as progesterone receptors (PgR), and second, MDA-MB-231 cells, which lack ER and PgR, and enable the determination of an effect that is independent of the ER mechanism. The effect of PPTN on the growth of these different cell lines was determined by incubation of the cells with various compound concentrations for 6 days.
The antiproliferative effects were then determined by direct cell counts. PPTN inhibited the growth of the ER-positive cell line MCF-7.

melanocortin-4 receptors, sequence (P32245 whole entry): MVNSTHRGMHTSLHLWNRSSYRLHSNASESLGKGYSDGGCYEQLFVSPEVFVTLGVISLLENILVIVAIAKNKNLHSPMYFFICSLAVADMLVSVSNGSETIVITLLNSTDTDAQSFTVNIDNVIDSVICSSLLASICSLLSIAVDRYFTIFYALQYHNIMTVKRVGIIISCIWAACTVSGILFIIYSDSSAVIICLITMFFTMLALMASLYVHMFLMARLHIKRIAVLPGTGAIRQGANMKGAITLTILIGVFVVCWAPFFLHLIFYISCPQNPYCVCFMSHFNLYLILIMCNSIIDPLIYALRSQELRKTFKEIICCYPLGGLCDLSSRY

binding of α-melanocyte stimulating hormone to melanocortin receptors (melanocortin receptors)	binding of agouti-related protein to melanocortin receptors (melanocortin-4 receptors)	Structure (SMILES)	effect on cell proliferation (MDA-MB-231 cells)
does not attenuate	attenuates	O=[N+]([O-])c1ccc(N2C3c4ccccc4CCN3N(c3ccc([N+](=O)[O-])cc3)C3c4ccccc4CCN32)cc1 (stereo not drawn) [8,16-bis-(4-nitro-phenyl)-5,6,8,8a,13,14,16,16a-octahydro-[1,2,4,5]tetrazino[6,1-a;3,4-a′]diisoquinoline]	–
–	–	Oc1ccc2c(c1)CC[C@H](c1ccccc1)[C@@H]2c1ccc(OCCN2CCCC2)cc1 [PPTN, (−)-cis-6-phenyl-5-[4-(2-pyrrolidin-1-yl-ethoxy)-phenyl]-5,6,7,8-tetrahydro-naphthalene-2-ol]	did not inhibit cell proliferation
